Reference: patent publication US9242978B2, “Phenylacetamide compound and pharmaceutical containing same” (KOWA COMPANY, LTD., priority 2012, dated 2016)
Read-outs that look alike come from different tables or passages of the source.

How the values were obtained:
[1] = target: T1, GST-GK derived from human liver GK (Homo sapiens, UniProt P35557); test: In vitro GK activating action measurement test; type: biochemical; settings: 10 min; test compound 1 μmol/L, glucose 2.5 mmol/L, 25° C.; read-out: GK activation rate (%)
T1 construct: made in house; host or cells: Escherichia coli DH5α
T1 sequence (P35557 1-466 isoform P35557-2): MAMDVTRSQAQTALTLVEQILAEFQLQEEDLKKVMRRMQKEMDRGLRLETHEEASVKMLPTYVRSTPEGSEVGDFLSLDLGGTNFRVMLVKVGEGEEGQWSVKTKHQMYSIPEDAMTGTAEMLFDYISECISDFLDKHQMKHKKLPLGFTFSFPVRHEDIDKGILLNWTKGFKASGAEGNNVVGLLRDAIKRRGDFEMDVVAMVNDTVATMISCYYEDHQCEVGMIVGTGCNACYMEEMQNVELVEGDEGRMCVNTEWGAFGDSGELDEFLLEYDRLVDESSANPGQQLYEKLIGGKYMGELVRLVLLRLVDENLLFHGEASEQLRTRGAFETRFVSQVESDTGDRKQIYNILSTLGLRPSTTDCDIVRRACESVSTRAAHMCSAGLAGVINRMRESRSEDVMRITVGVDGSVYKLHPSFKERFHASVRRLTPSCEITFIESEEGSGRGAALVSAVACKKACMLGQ
Text: cDNA (GenBank Accession No. NM_033507, human glucokinase, variant 2) encoding human liver-type GK polypeptide was cloned by performing a polymerase chain reaction (hereinafter referred to as “PCR”) using a human liver cDNA library (Human liver QUICK-Clone cDNA, TAKARA BIO INC.), and the thus cloned cDNA was then introduced into an expression vector (pGEX-3X, GE Healthcare Japan) for glutathione S transferase (hereinafter referred to as GST) fusion proteins. The resulting vector was introduced into Escherichia coli (Competent high DH5α, Toyobo Co., Ltd.), and the transformed Escherichia coli was then cultured at 37° C. Thereafter, Isopropyl β-D-1-thiogalactopyranoside (final concentration: 1 mmol/L, Sigma Aldrich Japan) was added to the culture, and the obtained mixture was then cultured at 30° C. for 3 hours. Thereafter, a cell mass was recovered. The recovered cell mass was subjected to freezing-and-thawing, and the resulting cell mass was then suspended in Triton-X that had been added in a final concentration of 1% to a phosphate buffer, followed by disintegration with an ultrasonic disintegrator. The homogenate was centrifuged at 33,200 rpm at 4° C. for 1 hour. Thereafter, the supernatant was recovered, and a GST-GK fusion protein was then purified using a glutathione column (GSTrap FF, GE Healthcare Japan). The obtained GST-GK fusion protein was divided into some portions each having a small volume, and the thus divided proteins were then preserved at −80° C.
A GK assay was carried out at 25° C. at a final incubation volume of 100 μL using a flat-bottom 96-well assay plate. An assay buffer comprised 25 mmol/L Hepes buffer (pH 7.1), 25 mmol/L KCl, 2.5 mmol/L or 10 mmol/L D-glucose, 5 mmol/L ATP, 1 mmol/L nicotinamide adenine dinucleotide phosphate (abbreviated as NADP), 2 mmol/L MgCl2, 1 mmol/L dithiothreitol (DTT), 2 units/mL glucose-6 phosphate dehydrogenase (G6PDH), and 1 μg/mL GST-GK derived from human liver GK. ATP, G6PDH, and NADP were purchased from Roche Diagnostics. […] The thus mixed solution was preincubated in an incubator in which the temperature was controlled at 25° C. for 15 minutes. Subsequently, the reaction was initiated by adding 10 μL of the GST-GK solution to the reaction mixture, resulting in a final concentration of 0.1 μg/mL. After initiation of the reaction, an increase in the optical concentration at 340 nm (OD340) was monitored with a microplate spectrophotometer (Varsamax, Molecular Devices Japan K. K.) every 10 seconds over an incubation period of 10 minutes. An inclination of the OD340 increase was defined as raw data. The GK activating rate was indicated as a numerical value obtained from the expression: (Inclination of OD340 increase by addition of the test compound)/(inclination of OD340 increase without addition of the test compound). The results of the GK activating rate obtained at a test compound concentration of 1 μmol/L under the condition of a glucose concentration of 2.5 mmol/L are shown in the following table 2.

[2] = Evaluation of organ selectivity (non-binding drug concentration in liver and pancreas after oral administration); type: in vivo, normal mice (C57BL/6j mice); settings: mice, 150 minutes after administration; for concentration at 150 min: C57BL/6j, mouse, dose 30 mg/kg
Protocol: A test compound suspended in 10% (v/v) Gelucire 44/14 (GATTEFOSSE) was orally administered to normal mice (C57BL/6j mice, CLEA Japan, Inc.). The percentages of drugs that had not bound to proteins in the liver and the pancreas, which had been obtained by the in vitro test, were […] the total concentrations of the drugs in the liver and the pancreas obtained 150 minutes after administration of the drugs, so as to calculate the non-binding concentration of the drug in each case. The ratio of the non-binding concentration of the drug in the […] was calculated, and thus, liver selectivity was evaluated. As a comparative compound, PSN-GK1 described in non-patent document 11 (corresponding to Example 94 of patent document 2) was produced according to the method described in patent document 2, and the produced comparative compound was then evaluated in the same manner as described above (in the table, the comparative compound is indicated as PSN-GK1).

[3] = system: normal mice (C57BL/6j mice); test: Oral glucose tolerance test with normal mice after single administration of test compound; type: in vivo; settings: 30 mg/kg oral, 2 g/kg glucose oral 30 minutes later, FIG. 1
Protocol: The test compound (Example 5) (30 mg/kg) suspended in 10%(v/v) Gelucire44/14 (GATTEFOSSE) was orally administered to normal mice (C57BL/6j mice, CLEA Japan, Inc.). Thirty minutes later, 2 g/kg glucose was orally administered to the mice. The blood glucose level was measured using an automatic blood glucose level measurement apparatus (Medisafe, TERUMO), before administration of the test compound, 25 minutes after administration of the test compound, and 15, 30, 60, and 120 minutes after administration of glucose. Thus, the action of the test compound to lower blood glucose level was evaluated.

[4] = system: normal mice (C57BL/6j mice); test: Transition in blood glucose levels after single administration of test compound to normal mice; type: in vivo; settings: 30 mg/kg oral, 1, 2, 4 and 6 hours after administration, FIG. 2
Protocol: A test compound (30 mg/kg, Example 5) suspended in 10% (v/v) Gelucire 44/14 (GATTEFOSSE) was orally administered to normal mice (C57BL/6j mice, CLEA Japan, Inc.). The blood glucose level was measured using an automatic blood glucose level measurement apparatus (Medisafe, TERUMO), before administration of the test compound, and 1, 2, 4, and 6 hours after administration of the test compound. Thus, the hypoglycemic action of the test compound was evaluated.

[5] = Evaluation of organ selectivity (non-binding drug concentration in liver and pancreas after oral administration); type: in vivo, normal mice (C57BL/6j mice); settings: mice, 150 minutes after administration
normal mice = settings: low dose; non-patent document 11; cited from earlier work

| activity at 1 µM [1] [%] | concentration at 150 min ([2]; liver, read-out: Non-binding concentration (ng/mL) Liver) [ng/mL] | concentration at 150 min ([2]; pancreas, read-out: Non-binding concentration (ng/mL) Pancreas) [ng/mL] | Non-binding concentration (ng/mL) Liver ([2]; dose 1 mg/kg) [ng/mL] | Non-binding concentration (ng/mL) Pancreas ([2]; dose 1 mg/kg) [ng/mL] | Non-binding concentration (ng/mL) Liver ([2]; dose 3 mg/kg) [ng/mL] | Non-binding concentration (ng/mL) Pancreas ([2]; dose 3 mg/kg) [ng/mL] | Selectivity Liver/pancreas ([2]; dose 3 mg/kg) | Non-binding concentration (ng/mL) Liver ([2]; dose 10 mg/kg) [ng/mL] | Non-binding concentration (ng/mL) Pancreas ([2]; dose 10 mg/kg) [ng/mL] | Selectivity Liver/pancreas ([5]; dose 1 mg/kg) | Selectivity Liver/pancreas ([5]; dose 10 mg/kg) | Structure (SMILES) | blood glucose level in oral glucose tolerance test versus solvent alone [3] | blood glucose level after single administration versus solvent alone [4] | selectivity ratio at 150 min ([5]; C57BL/6j, mouse, liver and pancreas, dose 30 mg/kg) | hypoglycemic action on normal mice (normal mice) |
| --- | --- | --- | --- | --- | --- | --- | --- | --- | --- | --- | --- | --- | --- | --- | --- | --- |
| 561 | 47 | 1.8 | – | – | – | – | – | – | – | – | – | CCNC(=O)N1CC[C@H](C[C@@H](C(=O)Nc2ncc(F)s2)c2ccc(S(=O)(=O)C3CC3)cc2)C1 [Example 5, (S)-3-((R)-2-(4-(cyclopropylsulfonyl)phenyl)-3-((5-fluorothiazol-2-yl)amino)-3-oxopropyl)-N-ethylpyrrolidine-1-carboxamide] | lower than that of the mice orally administered with the solvent alone | almost equal to the blood glucose level of the mice orally administered with the solvent alone | 27 | – |
| – | – | – | 0.56 | 0.58 | 1.4 | 1.7 | 0.8 | 7.4 | 6.0 | 1.0 | 1.2 | O=C(Nc1ncc(F)s1)[C@H](CC1CCOCC1)c1ccc(S(=O)(=O)C2CC2)cc1 [PSN-GK1, reference compound] | – | – | – | has a hypoglycemic action on normal mice |
